Experimental findings from ChEMBL document CHEMBL1201862, “PubChem BioAssay data set” (2004) are described below.

Some test systems named below: T47D; DMS-114; DMS-273; HOP-18; KM-20L2; LXFL 529; SNB-78; XF498.
What all share (experiment): NCI anticancer screen, dose series, 48 h

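Dose response: 5 concentrations. Exposure: 48 h. Format: 96-well plates. Endpoint: linear interpolation; highest concentration if not reached. Abbreviation: GI50, concentration required for 50% inhibition of growth.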 The source made the active and inactive calls. Rule as the data show it: active = GI50 up to about 1.1 µM and inactive = higher.

Consider `c1ccc2cc(-c3cc(-c4cc(-c5ccc6ccccc6c5)on4)no3)ccc2c1`, for which the GI50 with T47D was > 100 µM (inactive).

On to `COc1cc(C=O)ccc1Oc1nnnn1-c1ccccc1`, for which the GI50 in the assay on T47D is 16.5 µM (inactive).

As for `CCCCSCc1nc2nc(Cl)c(Cl)nc2[nH]1`, in the assay with T47D, the GI50 was 15.7 µM (inactive).

With `COc1ccc2[nH]c3c4c(ccc3c2c1)C(=O)C=CC4=O`, the GI50 in the assay on DMS-114 is 11.8 µM (inactive); in the assay on DMS-273, 16.2 µM (inactive); with HOP-18 it was 10.8 µM (inactive); with KM-20L2 it was 18.9 µM (inactive); in the assay on LXFL 529, 5.02 µM (inactive); with SNB-78, 16.3 µM (inactive). The GI50 in the assay with T47D is 2.64 µM (inactive).

`CCOc1cc2c(cc1O)/C(=N\N)C[C@@H]1[C@@H]2CC[C@]2(C)[C@@H](O)CC[C@@H]12`: the GI50 in the assay on T47D was 8.32 µM (inactive).

For `NS(=O)(=O)c1ccc(NC2(C(=O)O)CCCC2)cc1`, in the assay on T47D, the GI50 was > 100 µM (inactive).

For the molecule `O=C(CN1CCCCC1)Nc1ccc2sc3ccccc3c(=O)c2n1`, the GI50 in the assay on T47D is 27.2 µM (inactive).

Take `C=C1C(=O)O[C@H]2C1[C@H](OC(=O)/C(C)=C\COC(C)=O)C[C@]1(CO1)[C@@H]1[C@H](O)[C@H]3O[C@@]3(C)[C@@H]12` (stereo not given in full): the GI50 in the assay with DMS-114 was 19.4 µM (inactive); in the assay on DMS-273 it was 26.3 µM (inactive); in the assay on HOP-18 it was 20 µM (inactive); in the assay on KM-20L2 it was 30.5 µM (inactive); in the assay with SNB-78, 25.9 µM (inactive); with XF498 it was 19.3 µM (inactive).

On to `C=C1C(=O)OC2/C=C(\C)CC(O)/C=C(/CO)CC(OC(=O)/C(C)=C/C)C12` (stereo not given), for which the GI50 with DMS-114 is 14.3 µM (inactive); with DMS-273, 24 µM (inactive); with HOP-18, 26.3 µM (inactive); in the assay with KM-20L2, 71.1 µM (inactive); in the assay on SNB-78, 49.4 µM (inactive); in the assay on XF498, 12.2 µM (inactive).

`Nc1ccc(S(=O)(=O)Nc2nc3ccccc3nc2N2CCCCCC2)cc1`: in the assay with T47D, the GI50 was 22.9 µM (inactive).

As for `CSc1nn(C)cc2ncnc1-2`, in the assay with T47D, the GI50 is > 100 µM (inactive).

With `O=C1Nc2c(Cl)cccc2/C1=N/Nc1ccccc1[N+](=O)[O-]`, in the assay on T47D, the GI50 was 22.2 µM (inactive).

Consider `C1=Cc2cccc3occ(c23)C=C1`, for which the GI50 with T47D was 68.7 µM (inactive).

As for `CCOc1c(OC)cc(CNNc2nccs2)cc1OC`, in the assay on T47D, the GI50 is 11.7 µM (inactive).

In the case of `CC[C@@]1(O)C[C@H](OC2CC(N(C)C)C(O)C(C)O2)c2c(O)c3c(c(O)c2[C@H]1OC1CC(N(C)C)C(O)C(C)O1)C(=O)c1cccc(O)c1C3=O` (stereo not given in full), in the assay with T47D, the GI50 was 0.06 µM (active).

Regarding `COc1cc(/C=C2\C[C@H]3[C@@H]4CC=C5C[C@@H](O)CC[C@]5(C)[C@H]4CC[C@]3(C)[C@H]2O)cc(OC)c1OC`, the GI50 in the assay on T47D is 3.48 µM (inactive).

`CSC(=S)N/N=C(\C)c1cccc(C)n1`: the GI50 in the assay with T47D is 2.46 µM (inactive).

With `O=C1CCCN1C(=O)CS(=O)(=O)c1ccccc1`, the GI50 in the assay with T47D is > 100 µM (inactive).

With `Cc1cccc(C)c1NC(=O)/C(Cc1nc2ccc([N+](=O)[O-])cc2nc1O)=N\NC(N)=O`, the GI50 with T47D is > 100 µM (inactive).

As for `Nc1cccc(C#Cc2cccc(C#Cc3cccc(N)n3)n2)n1`, the GI50 in the assay on T47D was 76.9 µM (inactive).

Regarding `O=C1C(c2ccccc2)=[N+]([O-])c2cc([N+](=O)[O-])ccc21`, the GI50 is 14.3 µM (inactive) in the assay with DMS-114, 88.1 µM (inactive) in the assay with HOP-18, 23.5 µM (inactive) in the assay with KM-20L2 and 24 µM (inactive) with XF498.

On to `CCN1CCC(O)(c2ccc([N+](=O)[O-])cc2)C(C(=O)c2ccc([N+](=O)[O-])cc2)C1` (stereo not given), for which the GI50 in the assay with T47D was 23.3 µM (inactive).

In the case of `COc1ccc(/C=N/NC(=O)c2ccccc2Nc2ccccc2C(=O)N/N=C/c2ccc(OC)cc2)cc1`, the GI50 in the assay on T47D is > 100 µM (inactive).

As for `COC(=O)/C(=N/NC(C)(C)C)C(C(=O)OC)C(=O)C(=O)Nc1nc2ccc([N+](=O)[O-])cc2s1` (stereo not given), the GI50 in the assay on DMS-114, in the assay with KM-20L2, in the assay with LXFL 529, with SNB-78 and in the assay with XF498 was > 100 µM (inactive) each time.

Consider `N/C(=N\N=C\c1cc2ccccc2s1)c1cnccn1`, for which, in the assay with T47D, the GI50 was 8.93 µM (inactive).

In the case of `NC(=O)CC(N)C(=O)NC(Cc1ccccc1)C(=O)NC(Cc1ccccc1)NC(=O)C(Cc1c[nH]c2ccccc12)C(=O)O` (stereo not given), the GI50 in the assay on T47D was > 100 µM (inactive).

As for `Cc1cn(C2CC(O)C(COC(=O)NCCC(F)(F)C(F)(F)C(F)(F)C(F)(F)F)O2)c(=O)[nH]c1=O` (stereo not given), the GI50 in the assay with T47D is > 100 µM (inactive).

For the molecule `Nc1nc(SCCC/C=C/B(O)O)nc2c1ncn2C1OC(CO)C(O)C1O` (stereo not given), the GI50 with DMS-273, in the assay with KM-20L2, in the assay on LXFL 529, in the assay with SNB-78 and in the assay on XF498 was > 243 µM (inactive) throughout.

With `O=S1(=O)OCCOS(=O)(=O)C1Cl`, the GI50 in the assay on DMS-114, with DMS-273, in the assay on HOP-18, with LXFL 529 and in the assay on SNB-78 was > 100 µM (inactive) throughout.

On to `COc1c(Cl)nc2ccccc2c1N=[N+]=[N-]`, for which, in the assay on T47D, the GI50 was 85.7 µM (inactive).

On to `CN(Cc1cnc2c(N)nc(N)nc2n1)c1ccc(Cl)cc1`, for which the GI50 with T47D is 52.5 µM (inactive).

As for `N#Cc1cnn2ccn(C3OC(COC(=O)c4ccccc4)C(OC(=O)c4ccccc4)C3OC(=O)c3ccccc3)c12` (stereo not given), the GI50 with T47D was 19.1 µM (inactive).

In the case of `COc1ccc(C(=O)N2CCc3c([nH]c4ccccc34)C2C(=O)O)o1` (stereo not given), in the assay with T47D, the GI50 was > 10 µM (inactive).

As for `COc1ccc(/C(=N/O)C(c2ccc(OC)cc2)C2C(=O)Oc3ccccc32)cc1` (stereo not given), the GI50 in the assay with DMS-114 was 26.6 µM (inactive); with HOP-18, > 100 µM (inactive); in the assay on LXFL 529, 36.3 µM (inactive); with SNB-78, > 100 µM (inactive).

Turning to `COc1cc2ccc1-c1cc(ccc1O)CC1c3cc4c(cc3CCN1C)Oc1c(OC)cc3c(c1O4)C(C2)N(C)CC3` (stereo not given), the GI50 in the assay with DMS-114 was 2 µM (inactive); in the assay on DMS-273 it was 1.78 µM (inactive); in the assay on KM-20L2, 1.46 µM (inactive); in the assay with LXFL 529, 1.84 µM (inactive); with SNB-78, 2.1 µM (inactive); with XF498, 1.92 µM (inactive).

For the molecule `O=C1c2ccccc2-c2ccc(O)cc21`, in the assay on T47D, the GI50 was 18.4 µM (inactive).

`O=C1CC(c2ccsc2)n2cccc21` (stereo not given): the GI50 in the assay on T47D was > 100 µM (inactive).

For `N#CC(c1nc2ccccc2nc1Cl)S(=O)(=O)c1ccccc1` (stereo not given), the GI50 with DMS-114 is > 100 µM (inactive); with DMS-273, > 100 µM (inactive); in the assay on KM-20L2 it was > 100 µM (inactive); in the assay with LXFL 529, 46.6 µM (inactive); in the assay on SNB-78, 25.8 µM (inactive); in the assay with XF498, 37.6 µM (inactive).

Regarding `Cc1noc(/N=C2\C=C(O)C(=O)c3ccccc32)c1C`, in the assay on T47D, the GI50 is 33.3 µM (inactive).

Turning to `CC(C)(C)c1cc(S(=O)(=O)O)c2oc(-c3ccccc3)cc(=O)c2c1`, the GI50 with T47D is 84.9 µM (inactive).

For the molecule `NC1=NS(=O)(=O)Nc2nc(-c3ccc([N+](=O)[O-])o3)[nH]c21`, the GI50 is 14.2 µM (inactive) in the assay with DMS-114; 21.4 µM (inactive) in the assay on DMS-273; 16.3 µM (inactive) with HOP-18; 23.1 µM (inactive) with KM-20L2; 12.7 µM (inactive) with LXFL 529.

Consider `CN(C)CC1(C)CC/C(=C\c2ccc(Cl)cc2)C1=O` (stereo not given), for which the GI50 with DMS-114 was 22.6 µM (inactive); with DMS-273, 20.7 µM (inactive); in the assay on HOP-18, 46 µM (inactive); with KM-20L2, 21.3 µM (inactive); with LXFL 529, 21.1 µM (inactive); in the assay with SNB-78, 40.8 µM (inactive). The GI50 in the assay on XF498 was 78.9 µM (inactive).

For the molecule `C=C(C)CCC1CC=[N+]([O-])OC1C(C)(C)C` (stereo not given), the GI50 with T47D is 20.7 µM (inactive).

On to `Cc1nccn1S(=O)(=O)c1ccc(Cl)cc1`, for which the GI50 with T47D is 38 µM (inactive).

As for `COc1cc2nc(-c3cccs3)[nH]c(=O)c2cc1OC`, the GI50 in the assay on T47D was > 100 µM (inactive).

As for `CCCC/C(C)=N/NC(N)=S`, the GI50 with DMS-114, with HOP-18, in the assay on KM-20L2, with LXFL 529 and with SNB-78 was > 100 µM (inactive) in each case.

Regarding `COC(=O)CP1(=O)OC2C(C3CCC2(C)C3(C)C)N1c1cc(C(F)(F)F)cc(C(F)(F)F)c1` (stereo not given), the GI50 in the assay on T47D is 19.1 µM (inactive).

Turning to `Nc1n[n+](-c2ccccc2)no1`, the GI50 in the assay on DMS-114 is 18.3 µM (inactive); in the assay on DMS-273, 33.2 µM (inactive); in the assay with KM-20L2 it was 10.8 µM (inactive); in the assay on LXFL 529, 5.26 µM (inactive); in the assay with SNB-78 it was > 100 µM (inactive).

As to `CCOC(=O)[C@@]12CCC(C1=O)[C@](C)(O)C[C@@H]2c1ccccc1`, in the assay on T47D, the GI50 was 39 µM (inactive).

For the molecule `Nc1ncnc2c1nnn2C1C=CC(CP(=O)(O)O)C1` (stereo not given), the GI50 in the assay on T47D is > 100 µM (inactive).

On to `COc1cc([N+](=O)[O-])ccc1NC(=O)C(F)(F)F`, for which the GI50 in the assay on T47D was 97.7 µM (inactive).

Consider `Cn1cnc(N2CCCC2)c(C#N)c1=S`, for which the GI50 in the assay with T47D was > 100 µM (inactive).

Turning to `COc1cc(C(=O)C2C(=O)c3ccccc3C2C2(O)c3ccccc3CC2C(O)c2cc(OC)c(OC)c(OC)c2)cc(OC)c1OC` (stereo not given), in the assay on T47D, the GI50 is > 100 µM (inactive).

For `C=CCC1C2CCC(O[Si](C(C)C)(C(C)C)C(C)C)(C(C(=O)OC)C2)C1O` (stereo not given), the GI50 with T47D is 38.8 µM (inactive).

Regarding `O=c1[nH]cnc2[nH]nnc12`, the GI50 was 8.02 µM (inactive) in the assay with DMS-114; 6 µM (inactive) with DMS-273; 2.33 µM (inactive) in the assay with HOP-18; 3.87 µM (inactive) in the assay with KM-20L2; 84.7 µM (inactive) with LXFL 529; 6.3 µM (inactive) in the assay with SNB-78. In addition, the GI50 in the assay on XF498 was 7.5 µM (inactive).

`COC(=O)CC(C(C(=O)OCc1ccccc1)C(C)O)N1C(=O)OCC1c1ccccc1` (stereo not given): the GI50 in the assay on DMS-114 is 46.9 µM (inactive); in the assay with DMS-273, 66.1 µM (inactive); with KM-20L2, 83.8 µM (inactive); in the assay with LXFL 529, 56.1 µM (inactive); with XF498 it was 24.1 µM (inactive).

On to `Brc1ccc2c(-c3csc(-c4c[nH]c5cc(Br)ccc45)n3)c[nH]c2c1`, for which the GI50 in the assay on T47D was 20.2 µM (inactive).

As for `COc1cc2cc(C(=O)N3CC(CCl)c4c3cc(NC(=O)OCc3ccc([N+](=O)[O-])cc3)c3ccccc43)[nH]c2c(OC)c1OC` (stereo not given), the GI50 in the assay on T47D was 24.3 µM (inactive).
